Columns and labels:
Format in all cases: in vivo
[1] = test system: MATIN: Matricaria inodora; test: Post-emergence herbicidal effect
Outline: (§1)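 Weeds grown from seed in sandy loam in the greenhouse were sprayed at the one-leaf stage, 2 to 3 weeks after sowing. Compounds formulated as WP or EC were applied as aqueous suspension or emulsion with 0.5% additive at 600 l/ha. Activity was scored visually after about 3 weeks versus untreated controls (100% = dead, 0% = as control).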

PHBPU: Ipomoea purpurea [2] = test: Post-emergence herbicidal effect
Outline: as §1

[3] = test system: POLCO: Polygonum convolvulus; test: Post-emergence herbicidal effect
Outline: as §1

STEME: Stellaria media [4] = test: Post-emergence herbicidal effect
Outline: as §1

VIOTR: Viola tricolor [5] = test: Post-emergence herbicidal effect
Outline: as §1

[6] = test system: ABUTH: Abutilon theophrasti; test: Pre-emergence herbicidal effect
Outline: (§2)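 Seeds sown in pots and covered with soil; compounds formulated as WP or EC were sprayed onto the soil surface as aqueous suspension/emulsion with 0.5% additive at 600 l/ha water. Greenhouse growth for about 3 weeks, then visual scoring in % versus untreated controls (100% = plants died, 0% = like control).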

[7] = test system: ALOMY: Alopecurus myosuroides; test: Pre-emergence herbicidal effect; details: pre-emergence
Outline: as §2

[8] = test system: AMARE: Amaranthus retroflexus; test: Pre-emergence herbicidal effect; details: pre-emergence
Outline: as §2

AVEFA: Avena fatua [9] = test: Pre-emergence herbicidal effect
Outline: as §2

[10] = test system: ECHCG: Echinochloa crus-galli; test: Pre-emergence herbicidal effect; details: pre-emergence
Outline: as §2

HORMU: Hordeum murinum = test: Pre-emergence herbicidal effect; details: pre-emergence
Outline: as §2

LOLRI: Lolium rigidum [11] = test: Pre-emergence herbicidal effect
Outline: as §2

[12] = test system: MATIN: Matricaria inodora; test: Pre-emergence herbicidal effect; details: pre-emergence; dosage 320 g/ha
Outline: as §2

PHBPU: Ipomoea purpurea [13] = test: Pre-emergence herbicidal effect
Outline: as §2

[14] = test system: POLCO: Polygonum convolvulus; test: Pre-emergence herbicidal effect
Outline: as §2

SETVI: Setaria viridis [15] = test: Pre-emergence herbicidal effect; details: pre-emergence
Outline: as §2

STEME: Stellaria media [16] = test: Pre-emergence herbicidal effect; details: pre-emergence; dosage 320 g/ha
Outline: as §2

VERPE: Veronica persica [17] = test: Pre-emergence herbicidal effect; details: dosage 320 g/ha
Outline: as §2

VIOTR: Viola tricolor [18] = test: Pre-emergence herbicidal effect; details: dosage 320 g/ha
Outline: as §2

[19] = test system: ABUTH: Abutilon theophrasti; test: Post-emergence herbicidal effect
Outline: as §1

[20] = test system: ALOMY: Alopecurus myosuroides; test: Post-emergence herbicidal effect
Outline: as §1

[21] = test system: AMARE: Amaranthus retroflexus; test: Post-emergence herbicidal effect
Outline: as §1

AVEFA: Avena fatua [22] = test: Post-emergence herbicidal effect
Outline: as §1

[23] = test system: ECHCG: Echinochloa crus-galli; test: Post-emergence herbicidal effect
Outline: as §1

LOLRI: Lolium rigidum [24] = test: Post-emergence herbicidal effect
Outline: as §1

SETVI: Setaria viridis [25] = test: Post-emergence herbicidal effect
Outline: as §1

VERPE: Veronica persica [26] = test: Post-emergence herbicidal effect; details: dosage 320 g/ha
Outline: as §1

CYPES = test: Pre-emergence herbicidal effect
Outline: as §2

Cc1ccc2c(c1)[C@H](Nc1ncc(C(C)(C)O)c(N)n1)[C@@H](C)C2 [drawing 13, reference compound]
Herbicidal action against MATIN ([1]; dosage 80 g/ha): 0%
Herbicidal action against PHBPU (PHBPU: Ipomoea purpurea [2]; dosage 320 g/ha): 50%
Herbicidal action against POLCO ([3]; dosage 320 g/ha): 0%
Herbicidal action against STEME (STEME: Stellaria media [4]; dosage 80 g/ha): 0%
Herbicidal action against STEME (STEME: Stellaria media [4]; dosage 320 g/ha): 0%
Herbicidal action against VIOTR (VIOTR: Viola tricolor [5]; dosage 80 g/ha): 60%

Cc1ccc2c(c1)[C@H](Nc1ncc(C(C)(C)O)c(C)n1)[C@@H](C)C2 [Example 1.6]
Herbicidal action against ABUTH ([6]; dosage 80 g/ha): 90%
Herbicidal action against ABUTH ([6]; dosage 320 g/ha): 100%
Herbicidal action against ALOMY ([7]; dosage 80 g/ha): 100%
Herbicidal action against ALOMY ([7]; dosage 320 g/ha): 100%
Herbicidal action against AMARE ([8]; dosage 80 g/ha): 100%
Herbicidal action against AMARE ([8]; dosage 320 g/ha): 100%
Herbicidal action against AVEFA (AVEFA: Avena fatua [9]; dosage 80 g/ha): 80%
Herbicidal action against AVEFA (AVEFA: Avena fatua [9]; dosage 320 g/ha): 100%
Herbicidal action against ECHCG ([10]; dosage 80 g/ha): 100%
Herbicidal action against ECHCG ([10]; dosage 320 g/ha): 100%
Herbicidal action against HORMU (HORMU: Hordeum murinum; dosage 80 g/ha): 100%
Herbicidal action against HORMU (HORMU: Hordeum murinum; dosage 320 g/ha): 100%
Herbicidal action against LOLRI (LOLRI: Lolium rigidum [11]; dosage 80 g/ha): 100%
Herbicidal action against LOLRI (LOLRI: Lolium rigidum [11]; dosage 320 g/ha): 100%
Herbicidal action against MATIN [12]: 100%
Herbicidal action against PHBPU (PHBPU: Ipomoea purpurea [13]; dosage 80 g/ha): 80%
Herbicidal action against PHBPU (PHBPU: Ipomoea purpurea [13]; dosage 320 g/ha): 100%
Herbicidal action against POLCO ([14]; dosage 80 g/ha): 100%
Herbicidal action against POLCO ([14]; dosage 320 g/ha): 100%
Herbicidal action against SETVI (SETVI: Setaria viridis [15]; dosage 80 g/ha): 100%
Herbicidal action against SETVI (SETVI: Setaria viridis [15]; dosage 320 g/ha): 100%
Herbicidal action against STEME (STEME: Stellaria media [16]): 100%
Herbicidal action against VERPE (VERPE: Veronica persica [17]): 100%
Herbicidal action against VIOTR (VIOTR: Viola tricolor [18]): 100%
Herbicidal action against ABUTH ([19]; dosage 80 g/ha): 80%
Herbicidal action against ABUTH ([19]; dosage 320 g/ha): 90%
Herbicidal action against ALOMY ([20]; dosage 80 g/ha): 90%
Herbicidal action against ALOMY ([20]; dosage 320 g/ha): 100%
Herbicidal action against AMARE ([21]; dosage 80 g/ha): 100%
Herbicidal action against AMARE ([21]; dosage 320 g/ha): 100%
Herbicidal action against AVEFA (AVEFA: Avena fatua [22]; dosage 320 g/ha): 100%
Herbicidal action against ECHCG ([23]; dosage 80 g/ha): 100%
Herbicidal action against ECHCG ([23]; dosage 320 g/ha): 100%
Herbicidal action against LOLRI (LOLRI: Lolium rigidum [24]; dosage 80 g/ha): 40%
Herbicidal action against LOLRI (LOLRI: Lolium rigidum [24]; dosage 320 g/ha): 100%
Herbicidal action against MATIN ([1]; dosage 80 g/ha): 20%
Herbicidal action against PHBPU (PHBPU: Ipomoea purpurea [2]; dosage 320 g/ha): 100%
Herbicidal action against POLCO ([3]; dosage 320 g/ha): 80%
Herbicidal action against SETVI (SETVI: Setaria viridis [25]; dosage 80 g/ha): 90%
Herbicidal action against SETVI (SETVI: Setaria viridis [25]; dosage 320 g/ha): 100%
Herbicidal action against STEME (STEME: Stellaria media [4]; dosage 80 g/ha): 100%
Herbicidal action against STEME (STEME: Stellaria media [4]; dosage 320 g/ha): 100%
Herbicidal action against VERPE (VERPE: Veronica persica [26]): 80%
Herbicidal action against VIOTR (VIOTR: Viola tricolor [5]; dosage 80 g/ha): 90%
Herbicidal action against VIOTR (VIOTR: Viola tricolor [5]; dosage 320 g/ha): 90%

Cc1ccc2c(c1)[C@H](Nc1ncc(C(C)(C)O)c(N)n1)[C@@H](C)C2 [drawing 12, reference compound]
Herbicidal action against MATIN ([1]; dosage 80 g/ha): 0%
Herbicidal action against MATIN ([1]; dosage 320 g/ha): 60%
Herbicidal action against PHBPU (PHBPU: Ipomoea purpurea [2]; dosage 320 g/ha): 50%
Herbicidal action against POLCO ([3]; dosage 80 g/ha): 0%
Herbicidal action against POLCO ([3]; dosage 320 g/ha): 0%
Herbicidal action against STEME (STEME: Stellaria media [4]; dosage 80 g/ha): 0%
Herbicidal action against STEME (STEME: Stellaria media [4]; dosage 320 g/ha): 0%
Herbicidal action against VIOTR (VIOTR: Viola tricolor [5]; dosage 80 g/ha): 60%

Cc1ccc2c(c1)[C@H](Nc1ncc(C(C)O)cn1)[C@@H](C)C2 (stereo partly shown) [Example 1.2]
Herbicidal action against AMARE ([8]; dosage 320 g/ha): 100%
Herbicidal action against MATIN [12]: 100%
Herbicidal action against POLCO ([14]; dosage 320 g/ha): 100%
Herbicidal action against VERPE (VERPE: Veronica persica [17]): 100%
Herbicidal action against VIOTR (VIOTR: Viola tricolor [18]): 100%
Herbicidal action against ABUTH ([19]; dosage 320 g/ha): 80%
Herbicidal action against AMARE ([21]; dosage 80 g/ha): 100%
Herbicidal action against AMARE ([21]; dosage 320 g/ha): 100%
Herbicidal action against AVEFA (AVEFA: Avena fatua [22]; dosage 80 g/ha): 60%
Herbicidal action against AVEFA (AVEFA: Avena fatua [22]; dosage 320 g/ha): 80%
Herbicidal action against ECHCG ([23]; dosage 80 g/ha): 40%
Herbicidal action against ECHCG ([23]; dosage 320 g/ha): 100%
Herbicidal action against PHBPU (PHBPU: Ipomoea purpurea [2]; dosage 80 g/ha): 40%
Herbicidal action against POLCO ([3]; dosage 80 g/ha): 90%
Herbicidal action against POLCO ([3]; dosage 320 g/ha): 90%
Herbicidal action against SETVI (SETVI: Setaria viridis [25]; dosage 80 g/ha): 90%
Herbicidal action against SETVI (SETVI: Setaria viridis [25]; dosage 320 g/ha): 90%
Herbicidal action against STEME (STEME: Stellaria media [4]; dosage 80 g/ha): 90%
Herbicidal action against STEME (STEME: Stellaria media [4]; dosage 320 g/ha): 100%
Herbicidal action against VERPE (VERPE: Veronica persica [26]): 90%
Herbicidal action against VIOTR (VIOTR: Viola tricolor [5]; dosage 320 g/ha): 80%

CC(C)(O)c1cnc(N[C@@H]2CCCc3ccccc32)nc1 [Example 1.8, 2-{2-[(1R)-1,2,3,4-Tetrahydronaphthalen-1-ylamino]pyrimidin-5-yl}propan-2-ol]
Herbicidal action against ABUTH ([6]; dosage 320 g/ha): 100%
Herbicidal action against ALOMY ([7]; dosage 320 g/ha): 100%
Herbicidal action against AMARE ([8]; dosage 320 g/ha): 100%
Herbicidal action against AVEFA (AVEFA: Avena fatua [9]; dosage 320 g/ha): 100%
Herbicidal action against CYPES (CYPES; dosage 320 g/ha): 70%
Herbicidal action against ECHCG ([10]; dosage 320 g/ha): 100%
Herbicidal action against HORMU (HORMU: Hordeum murinum; dosage 320 g/ha): 100%
Herbicidal action against LOLRI (LOLRI: Lolium rigidum [11]; dosage 320 g/ha): 100%
Herbicidal action against MATIN [12]: 100%
Herbicidal action against PHBPU (PHBPU: Ipomoea purpurea [13]; dosage 320 g/ha): 100%
Herbicidal action against POLCO ([14]; dosage 320 g/ha): 100%
Herbicidal action against SETVI (SETVI: Setaria viridis [15]; dosage 320 g/ha): 100%
Herbicidal action against STEME (STEME: Stellaria media [16]): 100%
Herbicidal action against VERPE (VERPE: Veronica persica [17]): 100%
Herbicidal action against VIOTR (VIOTR: Viola tricolor [18]): 100%
Herbicidal action against ABUTH ([19]; dosage 320 g/ha): 90%
Herbicidal action against ALOMY ([20]; dosage 320 g/ha): 70%
Herbicidal action against AMARE ([21]; dosage 320 g/ha): 100%
Herbicidal action against AVEFA (AVEFA: Avena fatua [22]; dosage 320 g/ha): 100%
Herbicidal action against ECHCG ([23]; dosage 320 g/ha): 100%
Herbicidal action against MATIN ([1]; dosage 320 g/ha): 100%
Herbicidal action against PHBPU (PHBPU: Ipomoea purpurea [2]; dosage 320 g/ha): 80%
Herbicidal action against POLCO ([3]; dosage 320 g/ha): 90%
Herbicidal action against SETVI (SETVI: Setaria viridis [25]; dosage 320 g/ha): 100%
Herbicidal action against STEME (STEME: Stellaria media [4]; dosage 320 g/ha): 100%
Herbicidal action against VERPE (VERPE: Veronica persica [26]): 90%
Herbicidal action against VIOTR (VIOTR: Viola tricolor [5]; dosage 320 g/ha): 90%

Cc1ccc2c(c1)[C@H](Nc1ncc(C(C)(C)O)c(N)n1)[C@@H](C)C2 [drawing 3, reference compound]
Herbicidal action against CYPES (CYPES; dosage 80 g/ha): 60%
Herbicidal action against CYPES (CYPES; dosage 320 g/ha): 70%

Cc1ccc2c(c1)[C@H](Nc1ncc(C(C)(C)O)c(N)n1)[C@@H](C)C2 [drawing 10, reference compound]
Herbicidal action against ABUTH ([19]; dosage 80 g/ha): 30%
Herbicidal action against ALOMY ([20]; dosage 80 g/ha): 0%
Herbicidal action against ALOMY ([20]; dosage 320 g/ha): 10%
Herbicidal action against AMARE ([21]; dosage 80 g/ha): 60%
Herbicidal action against AMARE ([21]; dosage 320 g/ha): 70%
Herbicidal action against AVEFA (AVEFA: Avena fatua [22]; dosage 320 g/ha): 0%
Herbicidal action against ECHCG ([23]; dosage 80 g/ha): 0%
Herbicidal action against ECHCG ([23]; dosage 320 g/ha): 10%
Herbicidal action against LOLRI (LOLRI: Lolium rigidum [24]; dosage 80 g/ha): 0%
Herbicidal action against LOLRI (LOLRI: Lolium rigidum [24]; dosage 320 g/ha): 0%
Herbicidal action against SETVI (SETVI: Setaria viridis [25]; dosage 80 g/ha): 0%
Herbicidal action against SETVI (SETVI: Setaria viridis [25]; dosage 320 g/ha): 30%
